# Legend:
# lambsquarters [1] = test: Test Example 5: herbicidal effect by foliage application, plastic box (Table 20, symbol O); assay type: in vivo, lambsquarters (Chenopodium album); conditions: foliage application, AAH 320 g/ha, three weeks after application
# Outline: (§1)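 Post-emergence foliar test in sterilized diluvial soil. Compound applied as water-diluted emulsion at a predetermined rate to 14-day-old plants; evaluation at three weeks.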
# rice flat sedge = test: Test Example 3: herbicidal effect by foliage application, Wagner pot (Table 18, symbol E); assay type: in vivo, rice flat sedge (Cyperus iria); conditions: 320 g/ha
# Outline: (§2)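 Plants were sown in alluvial soil held under 0.1–0.5 cm standing water and grown 14 days in a greenhouse at 25–30 °C. An emulsifiable formulation, water-diluted to the set dose, was then sprayed onto the foliage, and effects were scored three weeks later using previously defined criteria.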
# green foxtail [2] = test: Test Example 4: herbicidal effect by soil treatment (Table 19, symbol G); assay type: in vivo, green foxtail (Setaria viridis); conditions: AAH 320 g/ha
# Outline: (§3)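 Scoring uses the grading scale of an earlier test, three weeks post-application. Treatment consists of spraying a diluted emulsion formulation across the surface of sterilized diluvial soil in which seeds are buried near 1.5 cm deep; boxes are kept in a greenhouse between 25° C. and 30° C.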
# southern crabgrass [3] = test: Test Example 5: herbicidal effect by foliage application, plastic box (Table 20, symbol F); assay type: in vivo, southern crabgrass (Digitaria ciliaris); conditions: foliage application, AAH 320 g/ha, three weeks after application
# Outline: as §1
# persian speedwell [4] = test: Test Example 5: herbicidal effect by foliage application, plastic box (Table 20, symbol R); assay type: in vivo, Persian speedwell (Veronica persica); conditions: foliage application, AAH 320 g/ha, three weeks after application
# Outline: as §1
# lambsquarters [5] = test: Test Example 4: herbicidal effect by soil treatment (Table 19, symbol O); assay type: in vivo, lambsquarters (Chenopodium album); conditions: AAH 320 g/ha
# Outline: as §3
# redroot pigweed [6] = test: Test Example 4: herbicidal effect by soil treatment (Table 19, symbol N); assay type: in vivo, redroot pigweed (Amaranthus retroflexus); conditions: AAH 320 g/ha
# Outline: as §3
# wild oat [7] = test: Test Example 5: herbicidal effect by foliage application, plastic box (Table 20, symbol I); assay type: in vivo, wild oat (Avena fatua); conditions: foliage application, AAH 320 g/ha, three weeks after application
# Outline: as §1
# velvetleaf [8] = test: Test Example 5: herbicidal effect by foliage application, plastic box (Table 20, symbol M); assay type: in vivo, velvetleaf (Abutilon theophrasti); conditions: foliage application, AAH 320 g/ha, three weeks after application
# Outline: as §1
# blackgrass [9] = test: Test Example 4: herbicidal effect by soil treatment (Table 19, symbol J); assay type: in vivo, blackgrass (Alopecurus myosuroides); conditions: AAH 320 g/ha
# Outline: as §3
# Italian ryegrass [10] = test: Test Example 5: herbicidal effect by foliage application, plastic box (Table 20, symbol K); assay type: in vivo, Italian ryegrass (Lolium multiflorum); conditions: foliage application, AAH 320 g/ha, three weeks after application
# Outline: as §1
# blackgrass [11] = test: Test Example 5: herbicidal effect by foliage application, plastic box (Table 20, symbol J); assay type: in vivo, blackgrass (Alopecurus myosuroides); conditions: foliage application, AAH 320 g/ha, three weeks after application
# Outline: as §1
# chickweed [12] = test: Test Example 5: herbicidal effect by foliage application, plastic box (Table 20, symbol P); assay type: in vivo, common chickweed (Stellaria media); conditions: foliage application, AAH 320 g/ha, three weeks after application
# Outline: as §1
# southern crabgrass [13] = test: Test Example 4: herbicidal effect by soil treatment (Table 19, symbol F); assay type: in vivo, southern crabgrass (Digitaria ciliaris); conditions: AAH 320 g/ha
# Outline: as §3
# chickweed [14] = test: Test Example 4: herbicidal effect by soil treatment (Table 19, symbol P); assay type: in vivo, common chickweed (Stellaria media); conditions: AAH 320 g/ha
# Outline: as §3
# Chinese sprangletop = test: Test Example 3: herbicidal effect by foliage application, Wagner pot (Table 18, symbol D); assay type: in vivo, chinese sprangletop (Leptochloa chinensis); conditions: 320 g/ha
# Outline: as §2
# wild oat [15] = test: Test Example 4: herbicidal effect by soil treatment (Table 19, symbol I); assay type: in vivo, wild oat (Avena fatua); conditions: AAH 320 g/ha
# Outline: as §3
# barnyard grass [16] = test: Test Example 4: herbicidal effect by soil treatment (Table 19, symbol H); assay type: in vivo, barnyard grass (Echinochloa crus-galli); conditions: AAH 320 g/ha
# Outline: as §3
# windgrass [17] = test: Test Example 4: herbicidal effect by soil treatment (Table 19, symbol L); assay type: in vivo, windgrass (Apera spica-venti); conditions: AAH 320 g/ha
# Outline: as §3
# persian speedwell [18] = test: Test Example 4: herbicidal effect by soil treatment (Table 19, symbol R); assay type: in vivo, Persian speedwell (Veronica persica); conditions: AAH 320 g/ha
# Outline: as §3
# velvetleaf [19] = test: Test Example 4: herbicidal effect by soil treatment (Table 19, symbol M); assay type: in vivo, velvetleaf (Abutilon theophrasti); conditions: AAH 320 g/ha
# Outline: as §3
# barnyard grass [20] = test: Test Example 5: herbicidal effect by foliage application, plastic box (Table 20, symbol H); assay type: in vivo, barnyard grass (Echinochloa crus-galli); conditions: foliage application, AAH 320 g/ha, three weeks after application
# Outline: as §1
# windgrass [21] = test: Test Example 5: herbicidal effect by foliage application, plastic box (Table 20, symbol L); assay type: in vivo, windgrass (Apera spica-venti); conditions: foliage application, AAH 320 g/ha, three weeks after application
# Outline: as §1
# Italian ryegrass [22] = test: Test Example 4: herbicidal effect by soil treatment (Table 19, symbol K); assay type: in vivo, Italian ryegrass (Lolium multiflorum); conditions: AAH 320 g/ha
# Outline: as §3
# barnyard grass [23] = test: Test Example 3: herbicidal effect by foliage application, Wagner pot (Table 18, symbol H); assay type: in vivo, barnyard grass (Echinochloa crus-galli); conditions: 320 g/ha
# Outline: as §2
# green foxtail [24] = test: Test Example 5: herbicidal effect by foliage application, plastic box (Table 20, symbol G); assay type: in vivo, green foxtail (Setaria viridis); conditions: foliage application, AAH 320 g/ha, three weeks after application
# Outline: as §1
# redroot pigweed [25] = test: Test Example 5: herbicidal effect by foliage application, plastic box (Table 20, symbol N); assay type: in vivo, redroot pigweed (Amaranthus retroflexus); conditions: foliage application, AAH 320 g/ha, three weeks after application
# Outline: as §1
SMILES,"O: lambsquarters, herbicidal effect (lambsquarters [1])","herbicidal effect on E (rice flat sedge), rating 0-5 (rice flat sedge)","G: green foxtail, herbicidal effect rating (green foxtail [2])","F: southern crabgrass, herbicidal effect (southern crabgrass [3])","R: persian speedwell, herbicidal effect (persian speedwell [4])","O: lambsquarters, herbicidal effect rating (lambsquarters [5])","N: redroot pigweed, herbicidal effect rating (redroot pigweed [6])","I: wild oat, herbicidal effect (wild oat [7])","M: velvetleaf, herbicidal effect (velvetleaf [8])","J: blackgrass, herbicidal effect rating (blackgrass [9])","K: Italian ryegrass, herbicidal effect (Italian ryegrass [10])","J: blackgrass, herbicidal effect (blackgrass [11])","P: chickweed, herbicidal effect (chickweed [12])","F: southern crabgrass, herbicidal effect rating (southern crabgrass [13])","P: chickweed, herbicidal effect rating (chickweed [14])","herbicidal effect on D (Chinese sprangletop), rating 0-5 (Chinese sprangletop)","I: wild oat, herbicidal effect rating (wild oat [15])","H: barnyard grass, herbicidal effect rating (barnyard grass [16])","L: windgrass, herbicidal effect rating (windgrass [17])","R: persian speedwell, herbicidal effect rating (persian speedwell [18])",also measured
C=Cc1ccc(-c2sc3ccccc3c2-c2c(O)c(C)nn(C)c2=O)cc1 [1-127],5 (Herbicidal rate of 90% or more (almost completely withered)),5 (Herbicidal rate of 90% or more (almost completely withered)),0 (Herbicidal rate of 5% or less (almost no effect)),2 (Herbicidal rate of 20% or more and less than 40%),5 (Herbicidal rate of 90% or more (almost completely withered)),4 (Herbicidal rate of 70% or more and less than 90%),5 (Herbicidal rate of 90% or more (almost completely withered)),0 (Herbicidal rate of 5% or less (almost no effect)),5 (Herbicidal rate of 90% or more (almost completely withered)),0 (Herbicidal rate of 5% or less (almost no effect)),5 (Herbicidal rate of 90% or more (almost completely withered)),1 (Herbicidal rate of 5% or more and less than 20%),5 (Herbicidal rate of 90% or more (almost completely withered)),0 (Herbicidal rate of 5% or less (almost no effect)),0 (Herbicidal rate of 5% or less (almost no effect)),3 (Herbicidal rate of 40% or more and less than 70%),0 (Herbicidal rate of 5% or less (almost no effect)),0 (Herbicidal rate of 5% or less (almost no effect)),0 (Herbicidal rate of 5% or less (almost no effect)),4 (Herbicidal rate of 70% or more and less than 90%),"M: velvetleaf, herbicidal effect rating (velvetleaf [19]): 2 (Herbicidal rate of 20% or more and less than 40%); H: barnyard grass, herbicidal effect (barnyard grass [20]): 4 (Herbicidal rate of 70% or more and less than 90%); L: windgrass, herbicidal effect (windgrass [21]): 5 (Herbicidal rate of 90% or more (almost completely withered)); K: Italian ryegrass, herbicidal effect rating (Italian ryegrass [22]): 5 (Herbicidal rate of 90% or more (almost completely withered)); herbicidal effect on H (barnyard grass), rating 0-5 (barnyard grass [23]): 0 (Herbicidal rate of 5% or less (almost no effect)); G: green foxtail, herbicidal effect (green foxtail [24]): 4 (Herbicidal rate of 70% or more and less than 90%); N: redroot pigweed, herbicidal effect (redroot pigweed [25]): 5 (Herbicidal rate of 90% or more (almost completely withered))"
Cc1nn(C)c(=O)c(-c2c(-c3ccc(C(F)(F)F)cc3)sc3ccccc23)c1O [1-129],4 (Herbicidal rate of 70% or more and less than 90%),5 (Herbicidal rate of 90% or more (almost completely withered)),0 (Herbicidal rate of 5% or less (almost no effect)),0 (Herbicidal rate of 5% or less (almost no effect)),5 (Herbicidal rate of 90% or more (almost completely withered)),5 (Herbicidal rate of 90% or more (almost completely withered)),5 (Herbicidal rate of 90% or more (almost completely withered)),0 (Herbicidal rate of 5% or less (almost no effect)),5 (Herbicidal rate of 90% or more (almost completely withered)),0 (Herbicidal rate of 5% or less (almost no effect)),5 (Herbicidal rate of 90% or more (almost completely withered)),0 (Herbicidal rate of 5% or less (almost no effect)),5 (Herbicidal rate of 90% or more (almost completely withered)),0 (Herbicidal rate of 5% or less (almost no effect)),1 (Herbicidal rate of 5% or more and less than 20%),3 (Herbicidal rate of 40% or more and less than 70%),0 (Herbicidal rate of 5% or less (almost no effect)),0 (Herbicidal rate of 5% or less (almost no effect)),0 (Herbicidal rate of 5% or less (almost no effect)),4 (Herbicidal rate of 70% or more and less than 90%),"M: velvetleaf, herbicidal effect rating (velvetleaf [19]): 2 (Herbicidal rate of 20% or more and less than 40%); H: barnyard grass, herbicidal effect (barnyard grass [20]): 3 (Herbicidal rate of 40% or more and less than 70%); L: windgrass, herbicidal effect (windgrass [21]): 0 (Herbicidal rate of 5% or less (almost no effect)); K: Italian ryegrass, herbicidal effect rating (Italian ryegrass [22]): 5 (Herbicidal rate of 90% or more (almost completely withered)); herbicidal effect on H (barnyard grass), rating 0-5 (barnyard grass [23]): 3 (Herbicidal rate of 40% or more and less than 70%); G: green foxtail, herbicidal effect (green foxtail [24]): 2 (Herbicidal rate of 20% or more and less than 40%); N: redroot pigweed, herbicidal effect (redroot pigweed [25]): 5 (Herbicidal rate of 90% or more (almost completely withered))"
Cc1nn(C)c(=O)c(-c2c(-c3ccc(OCC#N)cc3)sc3ccccc23)c1O [1-137],3 (Herbicidal rate of 40% or more and less than 70%),5 (Herbicidal rate of 90% or more (almost completely withered)),2 (Herbicidal rate of 20% or more and less than 40%),0 (Herbicidal rate of 5% or less (almost no effect)),4 (Herbicidal rate of 70% or more and less than 90%),2 (Herbicidal rate of 20% or more and less than 40%),3 (Herbicidal rate of 40% or more and less than 70%),0 (Herbicidal rate of 5% or less (almost no effect)),3 (Herbicidal rate of 40% or more and less than 70%),0 (Herbicidal rate of 5% or less (almost no effect)),0 (Herbicidal rate of 5% or less (almost no effect)),0 (Herbicidal rate of 5% or less (almost no effect)),3 (Herbicidal rate of 40% or more and less than 70%),0 (Herbicidal rate of 5% or less (almost no effect)),0 (Herbicidal rate of 5% or less (almost no effect)),3 (Herbicidal rate of 40% or more and less than 70%),0 (Herbicidal rate of 5% or less (almost no effect)),0 (Herbicidal rate of 5% or less (almost no effect)),0 (Herbicidal rate of 5% or less (almost no effect)),3 (Herbicidal rate of 40% or more and less than 70%),"M: velvetleaf, herbicidal effect rating (velvetleaf [19]): 0 (Herbicidal rate of 5% or less (almost no effect)); H: barnyard grass, herbicidal effect (barnyard grass [20]): 1 (Herbicidal rate of 5% or more and less than 20%); L: windgrass, herbicidal effect (windgrass [21]): 0 (Herbicidal rate of 5% or less (almost no effect)); K: Italian ryegrass, herbicidal effect rating (Italian ryegrass [22]): 0 (Herbicidal rate of 5% or less (almost no effect)); herbicidal effect on H (barnyard grass), rating 0-5 (barnyard grass [23]): 3 (Herbicidal rate of 40% or more and less than 70%); G: green foxtail, herbicidal effect (green foxtail [24]): 0 (Herbicidal rate of 5% or less (almost no effect)); N: redroot pigweed, herbicidal effect (redroot pigweed [25]): 0 (Herbicidal rate of 5% or less (almost no effect))"

# Source: patent publication US20230085307A1, “PYRIDAZINONE COMPOUND AND HERBICIDE” (NISSAN CHEMICAL CORPORATION, priority 2019, published 2023)
